Laboratory results as given in US20030144339A1, “Indole derivatives as mcp-1 receptor antagonists” (priority 2000, published 2003).

What was measured:
[1] = test system: THP-1 cells; assay: MCP-1 mediated calcium flux in THP-1 cells; format: cell-based, human; conditions: FURA-2, stimulation with hMCP-1, read-out: EC50 of rise in [Ca2+]i
Description: The human monocytic cell line TIP-1 was grown in a synthetic cell culture medium RPM 1640 supplemented with 10% foetal calf serum, 6 mM glutamine and Penicillin-Streptomycin (at 50 μg streptomycin/ml, Gibeo BRL). THP-1 cells were washed in HBSS (lacking Ca^2+ and Mg^2+)+1 mg/ml BSA and resuspended in the same buffer at a density of 3×10^6 cells/ml. The cells were then loaded with […] FURA-2/AM for 30 mrin at 37° C., washed twice in HBSS, and resuspended at 1×10^6 cells/ml. TrP-1 cell suspension (0.9 ml) was added to a 5 ml disposable cuvette containing a magnetic stirrer bar and 2.1 ml of prewarmed (37° C.) HBSS containing 1 mg/ml BSA, 1 mM MgCl2 and 2 mM CaCl2. The cuvette was placed in a fluorescence spectrophotometer (Perkin Elner, Norwalk, Conn.) and preincubated for 4 min at 37° C. with stirring. Fluorescence was recorded over 70 sec and cells were stimulated by addition of hMCP-1 to the cuvette after 10 sec. [Ca^2+]i was measured by excitation at 340 nm and 380 nm alternately and subsequent measurement of the intensity of the fluorescence emission at 510 nm.
where the Kd for FURA-2 Ca^2+ complex at 37° C. was taken to be 224 nm. […]

[2] = target: T1, MCP-1 receptor B (CCR2B) (Homo sapiens, UniProt P41597); assay: hMCP-1 receptor binding assay (125I-MCP-1, CHO-CCR2B cell membranes)
T1 construct: expressed in transfected cells; membrane fragments
T1 sequence (P41597 1-360 isoform P41597-2): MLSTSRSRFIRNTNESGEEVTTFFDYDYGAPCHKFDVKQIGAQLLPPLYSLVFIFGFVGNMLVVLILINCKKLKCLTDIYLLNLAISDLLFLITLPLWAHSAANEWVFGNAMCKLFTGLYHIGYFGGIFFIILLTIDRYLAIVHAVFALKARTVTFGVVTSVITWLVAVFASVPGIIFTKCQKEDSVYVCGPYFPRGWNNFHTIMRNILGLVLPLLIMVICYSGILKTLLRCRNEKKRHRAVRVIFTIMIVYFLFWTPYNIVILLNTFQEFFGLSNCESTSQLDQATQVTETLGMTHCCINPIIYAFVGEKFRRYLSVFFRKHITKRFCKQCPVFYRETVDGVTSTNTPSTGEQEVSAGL
Excerpt: The MCP-1 receptor B (CCR2B) cDNA was cloned by PCR from ThP-1 cell RNA using suitable oligonucleotide primers based on the published MCP-1 receptor sequences (Charo et al., 1994, Proc. Natl. Acad. Sci. USA, 91, 2752). The resulting PCR products were cloned into vector PCR-II™ (In Vitrogen, San Diego, Calif.). Error free CCR2B cDNA was subcloned as a Hind III-Not I fragment into the eukaryotic expression vector pCDNA3 (In Vitrogen) to generate pCDNA3/CC-CKR2A and pCDNA3/CCR2B respectively.
Linearised pCDNA3/CCR2B DNA was transfected into CHO-K1 cells by calcium phosphate precipitation (Wigler et al., 1979, Cell, 16, 777). Transfected cells were selected by the addition of Geneticin Sulphate (G418, Gibeo BRL) at 1 mg/ml, 24 hours after the cells had been transfected. Preparation of RNA and Northern blotting were carried out as described previously (Needham et al., 1995, Prot. Express. Purific., 6, 134). CHO-K1 clone 7 (CHO-CCR2B) was identified as the highest MCP-1 receptor B expresser.
CHO-CCR2B cells were grown in DMEM supplemented with 10% foetal calf serum, 2 mM glutamine, 1× Non-Essential Amino Acids, 1× Hypoxantiine and Thymidine Supplement and Penicillin-Streptomycin (at 50 μg streptomycin/ml, Gibco BRL). Membrane fragments were prepared using cell lysis/differential centrifuigation methods as described previously (Siciliano et al., 1990, J. Biol. Chem., 265, 19658). […]

[3] = test system: THP-1 cells; assay: hMCP-1 mediated chemotaxis of THP-1 cells; format: cell-based, human; conditions: 2 h at 37° C.
Description: In vitro chemotaxis assays were performed using the human monocytic cell line THP-1. Cell migration through polycarbonate membranes was measured by enumerating those passing through either directly by Coulter counting or indirectly by use of a colourimetric viability assay measuring the cleavage of a tetrazolium salt by the mitochondrial respiratory chain (Scudiero D. A. et al. 1988, Cancer Res., 48, 4827-4833).
Chemoattractants were introduced into a 96-well microtitre plate which forms the lower well of a chemotaxis chamber fitted with a PVP-free 5 μm poresize polycarbonate adhesive framed filter membrane (NeuroProbe MB series, Cabin John, Md. 20818, USA) according to the manufacturer's instructions. […] The plate was incubated at 37° C. for 3 h and the absorbance of the soluble formazan product was read on a microtitre plate reader at 450 nm. The data was input into a spreadsheet, corrected for any random migration in the absence of chemoattractant and the average absorbance values, standard error of the mean, and significance tests were calculated. bMCP-1 induced concentration dependent cell migration with a characteristic biphasic response, maximal 0.5-1.0 nm.

MCP-1: Human Monocyte Chemoattractant Protein-1, a C-C chemokine; natural ligand of the CCR2 receptor, used as assay ligand/stimulus
EC50 [1]: ~2 nM
IC50 ([2]; cold competition with 100 pM 125I-labeled MCP-1, room temperature, read-out: IC50 of MCP-1 binding to CHO-CCR2B membrane fragments): 0.11 nM
Kd ([2]; equilibrium binding, room temperature, read-out: Kd of MCP-1 binding to CHO-CCR2B membrane fragments): 0.12 nM
concentration giving maximal cell migration (biphasic response) [3]: 0.5-1.0 nm
